Where two headings read alike, the source gives them in different places.
Target: T1, SIRT1 (Homo sapiens, UniProt Q96EB6)
T1 sequence (Q96EB6 1-747): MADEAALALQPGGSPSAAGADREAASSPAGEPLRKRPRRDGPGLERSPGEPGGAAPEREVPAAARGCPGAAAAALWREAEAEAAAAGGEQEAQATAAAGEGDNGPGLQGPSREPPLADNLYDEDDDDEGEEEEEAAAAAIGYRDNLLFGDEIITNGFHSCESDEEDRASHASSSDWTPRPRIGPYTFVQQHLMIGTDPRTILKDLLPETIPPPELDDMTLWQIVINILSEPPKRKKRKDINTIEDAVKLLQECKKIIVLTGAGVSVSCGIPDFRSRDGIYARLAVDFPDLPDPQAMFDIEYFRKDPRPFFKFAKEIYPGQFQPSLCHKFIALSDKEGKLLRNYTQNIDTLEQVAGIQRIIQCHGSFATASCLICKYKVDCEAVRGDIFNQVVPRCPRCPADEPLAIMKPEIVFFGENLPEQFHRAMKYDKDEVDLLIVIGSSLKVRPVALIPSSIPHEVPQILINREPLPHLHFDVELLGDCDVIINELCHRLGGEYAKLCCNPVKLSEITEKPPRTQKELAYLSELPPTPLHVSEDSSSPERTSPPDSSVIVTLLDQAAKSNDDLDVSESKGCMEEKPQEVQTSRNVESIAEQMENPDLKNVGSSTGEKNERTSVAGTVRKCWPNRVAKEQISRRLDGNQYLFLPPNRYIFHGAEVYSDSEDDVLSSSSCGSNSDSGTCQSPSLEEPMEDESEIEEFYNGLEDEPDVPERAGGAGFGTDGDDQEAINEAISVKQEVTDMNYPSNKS
Assay: Trp mass spectrometry assay of SIRT1 activation (Ac-R-H-K-K(Ac)-W-NH2 peptide)
Assay type: biochemical
Settings: for Emax: 25 min, read-out: TRP MAX RESP (percent maximum fold activation)
Procedure, shortened: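 Mass spectrometry read-out (OAADPR formed, or deacetylated Trp peptide) after a 25 min NAD-dependent deacetylation by E. coli-expressed His-SIRT1, stopped with formic acid.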

[1] = Trp peptide 0.5 μM, 120 μM βNAD+, 10 nM SIRT1, 25 min at 25° C., relative to control (100%)
[2] = Trp peptide 0.5 μM, 120 μM βNAD+, 10 nM SIRT1, 25 min at 25° C.

Compound | Emax [1] [%] | TRP Activity (EC1.5, concentration of test compound that results in 150% activation of SIRT1) [2] | Emax [%]
CC(C)[C@@H](C)NC(=O)c1ccc2c(n1)N(C(=O)Nc1ccc(F)cn1)[C@H]1CCN2C1 [Example 80, (4S)—N5-(5-fluoropyridin-2-yl)-N7-((R)-3-methylbutan-2-yl)-3,4-dihydro-1,4-methanopyrido[2,3-b][1,4]diazepine-5,7(2H)-dicarboxamide] | > 150 | A (EC1.5<1 μM) | –
O=C(NC[C@H](O)C(F)(F)F)c1ccc2c(n1)N(C(=O)Nc1ccc(F)cn1)[C@H]1CCN2C1 [Example 81, (4S)—N5-(5-fluoropyridin-2-yl)-N7-((S)-3,3,3-trifluoro-2-hydroxypropyl)-3,4-dihydro-1,4-methanopyrido[2,3-b][1,4]diazepine-5,7(2H)-dicarboxamide] | > 150 | A (EC1.5<1 μM) | –
O=C(N[C@H](CO)C(F)(F)F)c1ccc2c(n1)N(C(=O)Nc1ccc(F)cn1)[C@H]1CCN2C1 [Example 82, (4S)—N5-(5-fluoropyridin-2-yl)-N7-((R)-1,1,1-trifluoro-3-hydroxypropan-2-yl)-3,4-dihydro-1,4-methanopyrido[2,3-b][1,4]diazepine-5,7(2H)-dicarboxamide] | > 150 | A (EC1.5<1 μM) | –
O=C(NCC(F)(F)F)c1ccc2c(n1)N(C(=O)Nc1cc(-c3cnco3)ccn1)[C@H]1CCN2C1 [Example 83, (4S)—N5-(4-(oxazol-5-yl)pyridin-2-yl)-N7-(2,2,2-trifluoroethyl)-3,4-dihydro-1,4-methanopyrido[2,3-b][1,4]diazepine-5,7(2H)-dicarboxamide] | > 150 | A (EC1.5<1 μM) | –
Cc1nn(C)cc1-c1ccnc(NC(=O)N2c3nc(C(=O)N[C@H](C)C(F)(F)F)ccc3N3CC[C@H]2C3)c1 [Example 84, (4S)—N5-(4-(1,3-dimethyl-1H-pyrazol-4-yl)pyridin-2-yl)-N7-((R)-1,1,1-trifluoropropan-2-yl)-3,4-dihydro-1,4-methanopyrido[2,3-b][1,4]diazepine-5,7(2H)-dicarboxamide] | > 150 | A (EC1.5<1 μM) | –
C[C@@H](NC(=O)c1ccc2c(n1)N(C(=O)Nc1cc(-c3ccn(C)n3)ccn1)[C@H]1CCN2C1)C(F)(F)F [Example 85, (4S)—N5-(4-(1-methyl-1H-pyrazol-3-yl)pyridin-2-yl)-N7-((R)-1,1,1-trifluoropropan-2-yl)-3,4-dihydro-1,4-methanopyrido[2,3-b][1,4]diazepine-5,7(2H)-dicarboxamide] | > 150 | A (EC1.5<1 μM) | –
C[C@@H](NC(=O)c1ccc2c(n1)N(C(=O)Nc1cc(-c3cncn3C)ccn1)[C@H]1CCN2C1)C(F)(F)F [Example 86, (4S)—N5-(4-(1-methyl-1H-imidazol-5-yl)pyridin-2-yl)-N7-((R)-1,1,1-trifluoropropan-2-yl)-3,4-dihydro-1,4-methanopyrido[2,3-b][1,4]diazepine-5,7(2H)-dicarboxamide] | > 150 | A (EC1.5<1 μM) | –
O=C(N[C@H](C1CC1)C(F)(F)F)c1ccc2c(n1)N(C(=O)Nc1cc(OC[C@H](O)CO)ccn1)[C@H]1CCN2C1 [Example 88, (4S)—N7-((R)-1-cyclopropyl-2,2,2-trifluoroethyl)-N5-(4-((R)-2,3-dihydroxypropoxy)pyridin-2-yl)-3,4-dihydro-1,4-methanopyrido[2,3-b][1,4]diazepine-5,7(2H)-dicarboxamide] | > 150 | A (EC1.5<1 μM) | –
O=C(NCC(F)(F)F)c1ccc2c(n1)N(C(=O)Nc1cc(OC[C@H](O)CO)ccn1)[C@H]1CCN2C1 [Example 89, (4S)—N5-(4-((R)-2,3-dihydroxypropoxy)pyridin-2-yl)-N7-(2,2,2-trifluoroethyl)-3,4-dihydro-1,4-methanopyrido[2,3-b][1,4]diazepine-5,7(2H)-dicarboxamide] | > 150 | A (EC1.5<1 μM) | –
O=C(NCC(F)(F)F)c1ccc2c(n1)N(C(=O)Nc1ncc3cc[nH]c3n1)[C@H]1CCN2C1 [Example 93, (4S)—N5-(7H-pyrrolo[2,3-d]pyrimidin-2-yl)-N7-(2,2,2-trifluoroethyl)-3,4-dihydro-1,4-methanopyrido[2,3-b][1,4]diazepine-5,7(2H)-dicarboxamide] | – | A (EC1.5<1 μM) | > 150

Continued, in another order:

Emax [1] [%] | TRP Activity (EC1.5, concentration of test compound that results in 150% activation of SIRT1) [2] | Compound | Emax [%]
> 150 | A (EC1.5<1 μM) | CC[C@@H](NC(=O)c1ccc2c(n1)N(C(=O)Nc1cc(OC[C@H](O)CO)ccn1)[C@H]1CCN2C1)C(F)(F)F [Example 90, (4S)—N5-(4-((R)-2,3-dihydroxypropoxy)pyridin-2-yl)-N7-((R)-1,1,1-trifluorobutan-2-yl)-3,4-dihydro-1,4-methanopyrido[2,3-b][1,4]diazepine-5,7(2H)-dicarboxamide] | –
> 150 | A (EC1.5<1 μM) | O=C(NC[C@H](O)C(F)(F)F)c1ccc2c(n1)N(C(=O)Nc1cc(OC[C@H](O)CO)ccn1)[C@H]1CCN2C1 [Example 91, (4S)—N5-(4-((R)-2,3-dihydroxypropoxy)pyridin-2-yl)-N7-((S)-3,3,3-trifluoro-2-hydroxypropyl)-3,4-dihydro-1,4-methanopyrido[2,3-b][1,4]diazepine-5,7(2H)-dicarboxamide] | –
> 150 | B (EC1.5 1-25 μM) | NCC(F)(F)CNC(=O)c1ccc2c(n1)N(C(=O)Nc1ccccn1)[C@H]1CCN2C1 [Example 94, (4S)—N7-(3-amino-2,2-difluoropropyl)-N5-(pyridin-2-yl)-3,4-dihydro-1,4-methanopyrido[2,3-b][1,4]diazepine-5,7(2H)-dicarboxamide] | –
> 150 | A (EC1.5<1 μM) | O=C(NCC(F)(F)F)c1ccc2c(n1)N(C(=O)Nc1cnc(OC[C@H](O)CO)cn1)[C@H]1CCN2C1 [Example 95, (4S)—N5-(5-((R)-2,3-dihydroxypropoxy)pyrazin-2-yl)-N7-(2,2,2-trifluoroethyl)-3,4-dihydro-1,4-methanopyrido[2,3-b][1,4]diazepine-5,7(2H)-dicarboxamide] | –
> 150 | A (EC1.5<1 μM) | O=C(NCC1CC1)c1ccc2c(n1)N(C(=O)Nc1cccnn1)[C@H]1CCN2C1 [Example 96, (4S)—N7-(cyclopropylmethyl)-N5-(pyridazin-3-yl)-3,4-dihydro-1,4-methanopyrido[2,3-b][1,4]diazepine-5,7(2H)-dicarboxamide] | –
> 150 | A (EC1.5<1 μM) | O=C(NCC1CC1)c1ccc2c(n1)N(C(=O)Nc1ncccn1)[C@H]1CCN2C1 [Example 97, (4S)—N7-(cyclopropylmethyl)-N5-(pyrimidin-2-yl)-3,4-dihydro-1,4-methanopyrido[2,3-b][1,4]diazepine-5,7(2H)-dicarboxamide] | –

Reference: patent publication US10072011B2, “Substituted bridged urea analogs as sirtuin modulators” (GlaxoSmithKline Intellectual Property (No.2) Limited, priority 2014, dated 2018)
